Here are results for eleven molecules from patent publication US8329739B2, “Phenylimidazole compounds” (Otsuka Pharmaceutical Factory, Inc., priority 2009, dated 2012).

In series [1] the target is T1, LPL (lipoprotein lipase) (Homo sapiens, UniProt P06858).
T1 construct: endogenous in cells; host or cells: human skeletal muscle myoblasts, differentiated
T1 sequence (P06858 28-475): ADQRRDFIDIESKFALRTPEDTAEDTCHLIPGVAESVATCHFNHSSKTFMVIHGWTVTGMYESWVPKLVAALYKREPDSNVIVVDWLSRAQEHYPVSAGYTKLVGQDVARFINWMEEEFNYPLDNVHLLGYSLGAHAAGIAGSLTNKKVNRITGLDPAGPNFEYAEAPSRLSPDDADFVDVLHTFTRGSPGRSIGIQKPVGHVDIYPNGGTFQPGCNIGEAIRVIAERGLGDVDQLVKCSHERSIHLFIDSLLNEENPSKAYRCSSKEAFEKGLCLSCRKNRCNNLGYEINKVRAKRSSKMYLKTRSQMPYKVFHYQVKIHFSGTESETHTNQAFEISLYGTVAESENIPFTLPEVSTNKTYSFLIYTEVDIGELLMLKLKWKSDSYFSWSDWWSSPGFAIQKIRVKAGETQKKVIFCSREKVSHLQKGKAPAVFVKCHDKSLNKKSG
Nature of the series: Confirmation test of LPL activation effect in human skeletal muscle cells. Format: cell-based. The note with it: 8 hours exposure, vs control group. The procedure:
Human skeletal muscle cells (human skeletal muscle myoblasts) or mouse skeletal muscle cells (C2C12 cells) that were seeded onto plates, cultured, and differentiated were exposed to a 0.3% dimethyl sulfoxide-containing culture medium in which the compound of the present invention was dissolved (concentration: 10 μM or 30 μM). The medium was removed 8 hours after exposure, 10 mM of Tris-HCl buffer (150 mM NaCl, 10 μ/mL; containing heparin sodium) was added to the cells, and the cells were incubated at 37° C. in the presence of 5% CO2 for 10 minutes. LPL activity in the supernatant was measured using an LPL activity assay kit (made by Roar Biomedical Inc.). LPL activity was evaluated based on the increase in fluorescence intensity 10 to 70 minutes after mixing the supernatant with the LPL substrate. The mean value of the increase in fluorescence intensity of the cells exposed to a 0.3% dimethyl sulfoxide-containing culture medium […] was used as mean value of the control group. Note that the compounds of Examples 18, 19, 32, 45 and 57 were tested using human skeletal muscle cells, and other compounds were tested using mouse skeletal muscle cells. The rate of increase (%) was calculated from the measured values of LPL activity in the control group and the experimental group, according to the following formula. Rate of increase in LPL activity (%)=[(mean value of the experimental group)−(mean value of the control group)]/(mean value of the control group)×100

A short description of series [2]: Lipid-improving action in SD rats: blood biochemical examinations (triglyceride, HDL-cholesterol). Format: in vivo. The note with it: Rattus norvegicus, po, 100 mg/kg orally every day for 5 days or 2 weeks, plasma 4 hours after final administration, vs control group, read-out: Rate of increase in HDL-cholesterol levels (%). The procedure: (§1) 8-week-old SD rats (Japan Charles River: average body weight of about 350 g) were used. 5% aqueous gum arabic suspension, which was prepared such that the dosage of a compound of the present invention was 100 mg/kg body weight, was orally administered to the experimental group in an amount of 5 ml/kg body weight. 5% aqueous gum arabic suspension (not containing any compounds of the present invention) was orally administered to the control group in an amount of 5 ml/kg body weight. The rats were grouped according to their body weight at 8 weeks of age such that each group had 5 rats. The test compounds were orally administered every day at a fixed time for 5 days or 2 weeks, starting when the rats were 9 weeks old. Body weight was regularly measured during the period of oral administration, and the body weight gain-inhibiting effect was observed. 4 hours after the final administration of the test compound, blood was collected from the vein, plasma was separated from the collected blood, and blood biochemical examinations (triglyceride, HDL-cholesterol) were carried out.
Blood biochemical examinations of rats in the control group and the experimental group were performed. The rates of change (%) were calculated according to the following formulae from the measured values obtained from the blood biochemical examinations. […] Rate of decrease in triglyceride levels (%)=[(mean value of the control group)−(mean value of the experimental group)]/(mean value of the control group)×100 Rate of increase in HDL-cholesterol levels (%)=[(mean value of the experimental group)−(mean value of the control group)]/(mean value of the control group)×100

A short description of series [3]: Body weight gain-inhibiting effect in normal SD rats. Type of series: in vivo. The note with it: Rattus norvegicus, po, 100 mg/kg orally every day for 5 days or 2 weeks, vs control group, read-out: Rate of inhibition of body weight gain (%). The method, then:
as §1
The rate of inhibition of body weight gain (%) was calculated from the measured body weights of rats in the control group and the experimental group, according to the following formula. […] Rate of inhibition of body weight gain (%)=[(mean value of the control group)−(mean value of the experimental group)]/(mean value of the control group)×100

Series [4] is described as follows: Confirmation test of anti-obesity action in dietary-obese mice. Type of series: in vivo. Particulars: AKR/J mice on high-fat diet (60% kcal fat), 20 mg/kg orally every day for 4 weeks, vs control group. The method, then:
AKR/J mice were used. These mice were fed a high-fat diet with 60% kcal fat, and a model of dietary obesity was developed. 5% aqueous gum arabic suspension, which was prepared such that the dosage of a compound of the present invention was 20 mg/kg body weight, was orally administered to the experimental group of obese mice in an amount of 5 ml/kg body weight. […] The mice were grouped according to body weight. The test suspension was administered everyday at a fixed time for 4 weeks. Body weight was measured during the period of oral administration, and the body weight gain-inhibiting effect was confirmed. The rate of body weight reduction (%) was calculated from the measured body weights of mice in the control group and the experimental group, according to the following formula. […] Rate of body weight reduction (%)=[(mean value of the control group)−(mean value of the experimental group)]/(mean value of the control group)×100

For series [5], the target named is T2, LPL (lipoprotein lipase) (Mus musculus, UniProt P11152).
T2 construct: endogenous in cells; host or cells: C2C12 cells, differentiated
T2 sequence (P11152 28-474): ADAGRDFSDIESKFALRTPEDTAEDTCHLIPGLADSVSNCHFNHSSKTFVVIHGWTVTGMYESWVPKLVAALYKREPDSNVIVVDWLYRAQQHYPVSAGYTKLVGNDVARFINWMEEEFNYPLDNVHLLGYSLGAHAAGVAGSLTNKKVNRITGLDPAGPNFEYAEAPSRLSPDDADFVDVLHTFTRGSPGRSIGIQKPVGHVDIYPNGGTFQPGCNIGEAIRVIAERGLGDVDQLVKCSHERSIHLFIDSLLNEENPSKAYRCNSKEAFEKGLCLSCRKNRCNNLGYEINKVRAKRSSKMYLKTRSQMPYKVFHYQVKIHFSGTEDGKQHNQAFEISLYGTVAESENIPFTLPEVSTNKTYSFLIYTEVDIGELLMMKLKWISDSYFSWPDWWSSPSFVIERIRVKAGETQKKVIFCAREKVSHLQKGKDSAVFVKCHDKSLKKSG
Nature of the series: Confirmation test of LPL activation effect in mouse skeletal muscle cells (C2C12 cells). Type of series: cell-based. Particulars: 8 hours exposure, vs control group. In outline:
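Differentiated human skeletal muscle myoblasts or mouse C2C12 cells were exposed to compound at 10 μM or 30 μM in 0.3% DMSO medium for 8 h, then LPL was released with heparin-containing Tris-HCl buffer (10 min, 37° C). Supernatant LPL activity was taken as the fluorescence increase 10–70 min after adding substrate; % increase is calculated versus the DMSO control mean.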

In the case of `COc1cc(OCc2ccc(Br)cc2F)ccc1-c1c[nH]c(-c2ccc(C(F)(F)F)cc2)n1` [Example 18], the melting point fell in the range of 167 to 170 °C. At LPL (lipoprotein lipase) [1] (amount of addition 10 μM), the “Rate of increase in LPL activity” value is 23%. For the same molecule, the “Rate of increase in LPL activity” value at LPL (lipoprotein lipase) [1] (amount of addition 30 μM) turned out to be 23%. Moreover, in series [2], the change in vivo at 100 mg/kg came to 171%. The inhibition in vivo at 100 mg/kg in series [3] is 13%.
Turning to `COc1cc(OCc2ccc(Cl)cc2)ccc1-c1c[nH]c(-c2ccc(C(F)(F)F)cc2)n1` [Example 19], the melting point was in the range of 158 to 162 °C. For the same molecule, the “Rate of increase in LPL activity” value at LPL (lipoprotein lipase) [1] (amount of addition 10 μM) is 24%. In addition, the “Rate of increase in LPL activity” value at LPL (lipoprotein lipase) [1] (amount of addition 30 μM) is listed as 28%. Moreover, the change in vivo at 100 mg/kg in series [2] was 99%. In addition, in series [3], the inhibition in vivo at 100 mg/kg was found to be 11%.
In turn, `COc1cc(OCc2ccc(Br)cc2F)ccc1-c1c[nH]c(-c2cccs2)n1.Cl` [Example 23] showed a melting point of 249 to 253 °C. In addition, the “Rate of body weight reduction (%)” value in series [4] was 13%. Further, the “Rate of increase in LPL activity” value on LPL (lipoprotein lipase) [5] (amount of addition 10 μM) amounted to 40%. At LPL (lipoprotein lipase) [5] (amount of addition 30 μM), the “Rate of increase in LPL activity” value amounted to 95%.
`COc1cc(-c2c[nH]c(-c3ccc(C(F)(F)F)cc3)n2)ccc1OCc1ccc(Cl)cc1` [Example 32]: the melting point was 158 to 159 °C. Besides, on LPL (lipoprotein lipase) [1] (amount of addition 10 μM), the “Rate of increase in LPL activity” value is listed as 22%. The “Rate of increase in LPL activity” value on LPL (lipoprotein lipase) [1] (amount of addition 30 μM) stood at 57%. The change in vivo at 100 mg/kg in series [2] amounted to 16%. Further, the “Rate of body weight reduction (%)” value in series [4] was found to be 11%. Moreover, the inhibition in vivo at 100 mg/kg in series [3] was 8%.
In turn, `COc1cc(OCc2ccc(C#N)cc2)ccc1-c1c[nH]c(-c2ccc(F)cc2)n1.Cl` [Example 45] had a melting point of 189 to 191 °C. Also, the “Rate of increase in LPL activity” value at LPL (lipoprotein lipase) [1] (amount of addition 10 μM) is recorded as 23%. The “Rate of increase in LPL activity” value on LPL (lipoprotein lipase) [1] (amount of addition 30 μM) is on record as 32%. Moreover, the change in vivo at 100 mg/kg in series [2] amounted to 27%. In series [4], the “Rate of body weight reduction (%)” value amounted to 11%. Further, in series [3], the inhibition in vivo at 100 mg/kg is 12%.
With `COc1cc(-c2c[nH]c(-c3ccc(F)cc3)n2)ccc1OCc1ccc(Br)cc1F.Cl` [Example 52], the melting point lay in the range of 228 to 233 °C. In addition, the change in vivo at 100 mg/kg in series [2] was determined as 36%. Moreover, the inhibition in vivo at 100 mg/kg in series [3] turned out to be 6%.
Molecule `COc1cc(OCc2ccc(Br)cc2F)ccc1-c1c[nH]c(-c2ccc(F)cc2)n1.Cl` [Example 57] returned a melting point greater than 250 °C. In addition, the “Rate of increase in LPL activity” value on LPL (lipoprotein lipase) [1] (amount of addition 10 μM) was found to be 19%. The “Rate of increase in LPL activity” value on LPL (lipoprotein lipase) [1] (amount of addition 30 μM) came out at 40%. Besides, the change in vivo at 100 mg/kg in series [2] came out at 184%. Besides, the “Rate of body weight reduction (%)” value in series [4] amounted to 17%. In addition, in series [3], the inhibition in vivo at 100 mg/kg was 14%.
In turn, `COc1cc(-c2c[nH]c(-c3cccs3)n2)ccc1OCc1ccc(Br)cc1F` [Example 67] displayed a melting point of 177 to 179 °C. Moreover, the change in vivo at 100 mg/kg in series [2] stood at 15%. Further, in series [3], the inhibition in vivo at 100 mg/kg was 7%. At LPL (lipoprotein lipase) [5] (amount of addition 10 μM), the “Rate of increase in LPL activity” value is listed as 22%. In addition, the “Rate of increase in LPL activity” value on LPL (lipoprotein lipase) [5] (amount of addition 30 μM) worked out at 34%.
Consider `COc1cc(OCc2ccc(Cl)cc2)ccc1-c1c[nH]c(-c2ccsc2)n1.Cl` [Example 70], for which the melting point lay within 238 to 241 °C. The change in vivo at 100 mg/kg in series [2] turned out to be 34%. In addition, in series [3], the inhibition in vivo at 100 mg/kg stood at 14%. For the same molecule, on LPL (lipoprotein lipase) [5] (amount of addition 10 μM), the “Rate of increase in LPL activity” value was 22%. Moreover, the “Rate of increase in LPL activity” value at LPL (lipoprotein lipase) [5] (amount of addition 30 μM) amounted to 87%.
The matching figures for `COc1cc(OCc2ccc(C#N)cc2)ccc1-c1c[nH]c(-c2cccc(C(F)(F)F)c2)n1.Cl` [Example 74]: 248 to 250 °C, 64%, 6%, 10% and 55%.
The matching figures for `COc1cc(OCc2ccc(Br)cc2F)ccc1-c1c[nH]c(-c2ccc(C)cc2)n1` [Example 84]: 160 to 162 °C, 187%, 8%, 53% and 97%.

The melting point is the temperature, or range, at which the solid turns liquid.
